# Measurements reported in US20040044028A1, “Combinations of omega-3 fatty acids and cyclooxygenase-2 inhibitors for treatment or prevention of cardiovascular disease and treatment or prevention of cancer” (priority 2001, published 2004).
# Marks after values point to notes of the source that are not given here.
# Legend:
# [1] = system: mouse liver; set-up: species or system mice; conditions: in vivo
# Excerpt: The metabolism of stearidonic acid to long chain n-3 polyunsaturated fatty acids (i.e., eicosapentaenoic acid (EPA), docosapentaenoic acid (DPA n-3) and docosahexaenoic acid (DHA)) in mouse liver is compared to that of α-linolenic acid, eicosapentaenoic acid and docosahexaenoic acid. The method used is a non-radioactive, dose response, metabolic end-point study.
# Mice are fed a US 17 diet containing α-linolenic acid ethyl ester (ALA-EE), stearidonic acid ethyl ester (SDA-EE), eicosapentaenoic acid ethyl ester (EPA-EE), or docosahexaenoic acid ethyl ester (DHA-EE) in an amount equivalent to a human western diet containing 1, 3 or 10 g/day of the fatty acid (g/day human equivalent dose). In order to maintain a 17% fat (37% energy) content in the US17 diet, oleic acid (18:1 n-9), as an oleic acid cassette, is removed from the US17 diet in an amount equal to the amount of fatty acid ester that is added. Oleic acid is selected as the replacement fatty acid because literature reports indicate that oleic acid is neutral with respect to inflammation and cancer.
# After one month on the respective US17-based diets, the mice are sacrificed and the fatty acid composition of each of their livers is analyzed by gas chromatography. The sum of the long chain n-3 PUFAs (i.e., EPA+DPA n-3+DHA) increases dose dependently in liver tissue in the following rank order: DHA-EE>EPA-EE>SDA-EE>ALA-EE. […] Each of the dietary n-3 PUFAs decreases the level of arachidonic acid in liver tissue dose dependently. This is significant because arachidonic acid metabolites (e.g., prostaglandins, leukotrienes, and HETEs (hydroxyeicosatetraenoic acid)) are correlated with cardiovascular disease, inflammation, and tumorigenesis. The group “basal” refers to mice that are fed the standard rodent chow diet just prior to switching to diets that are US17 based.
# [2] = system: Min/+ mouse model of intestinal cancer; assay: Min/+ mouse model of intestinal cancer, intestinal polyp formation; format: in vivo; conditions: for mice with large intestine tumors / mice in group (in parentheses): seven weeks on US17 diet with fatty acid ethyl ester 3% wt. or sulindac 320 ppm; for effect on polyp number: differences not significant relative to the US17 control
# Description: The efficacy of select n-3 and n-6 polyunsaturated fatty acids is evaluated in the Min/+ mouse model of intestinal cancer. The following fatty acid ethyl esters are tested for their effect on intestinal polyp formation: 1) ALA-EE; 2) SDA-EE; 3) EPA-EE; 4) DHA-EE; 5) GLA-EE ([…] adid, 18:3 n-6); and 6) CLA-EE (conjugated linoleic acid; c9t11-18:2 (77%)+c9c11-18:2 (18%)+other isomers (5%)).
# These fatty acid ethyl esters are added to the US17 diet to provide 10 g/day human equivalent dose (3% wt.). The NSAID, sulindac (320 ppm), serves as the positive control. In order to maintain a 17% fat (37 en %) content in the US17 diet, oleic acid (18:1 n-9) is removed from the US17 diet in an amount equal to the amount of the fatty acid ethyl ester that is added. Mice are received at approximately five weeks of age and are fed the test diets upon receipt. After seven weeks on the respective test diet, the mice are sacrificed and the intestinal polyps are counted and measured.
# [3] = system: HepG2 cells; assay: Metabolism of 14C fatty acids to long chain n-3 PUFAs, EPA and DHA in HepG2 cells; format: in vitro ADME; conditions: for metabolized to DHA / metabolized to EPA: 20 μM 14C fatty acid
# Description: To a culture medium containing HepG2 cells is added 20 μM ^14C-ALA, ^14C-SDA or ^14C-EPA complexed to fatty acid free BSA. The amount of ^14C-ALA, ^14C-SDA or ^14C-EPA taken up by the HepG2 cells is measured at 6 hours, 24 hours and 48 hours after addition of the fatty acid. A scintillation counter is used to measure the total amount of radioactivity in the HepG2 cells and the amount remaining in the medium.
# The metabolism of stearidonic acid to long chain n-3 PUFAs (eicosatetraenoic acid (20:4n-3), eicosapentaenoic acid (20:5n-3), docosapentaenoic acid (22:5n-3), and docosahexaenoic acid (22:6n-3)) in HepG2 cells is compared to that of α-linolenic acid. HepG2 cells are allowed to take up ^14C-ALA or ^14C-SDA as described in Example 2. The total amount of ^14C-EPA, ^14C-DPA and ^14C-DHA present in the HepG2 cells is measured at 6 hours, 24 hours and 48 hours after addition of the fatty acid by argentation thin layer chromatography (TLC). The amount of each fatty acid present as a band on the TLC plate is quantified by electronic autoradiography using an Instant Imager available from Packard (Meriden, Conn.).
# HepG2 cells are allowed to take up ^14C-ALA, ^14C-SDA or ^14C-EPA as described in Example 2. The amount of ^14C-EPA and ^14C-DHA present in the HepG2 cells is measured at 6 hours, 24 hours and 48 hours after addition of the fatty acids by argentation thin layer chromatography (TLC) as described in Example 3. The amount of ^14C-EPA and ^14C-DHA present as bands on the TLC plate are quantified by electronic autoradiography using an Instant Imager as described in Example 3.
# [4] = system: mouse liver; assay: Metabolism in mice, time course analysis using radiolabeled fatty acids; format: in vivo; conditions: 10 μCi intraperitoneal, at 24 hours
# Excerpt: The metabolism of stearidonic acid to long chain n-3 polyunsaturated fatty acids (i.e., eicosapentaenoic acid (EPA), docosapentaenoic acid (DPA n-3), and docosahexaenoic acid (DHA)) in mouse liver is compared to that of α-linolenic acid, eicosapentaenoic acid and docosahexaenoic acid. The method used is a time course study using ^14C-labeled fatty acids.
# Mice are fed the US 17 diet for a period of one month in order to achieve steady-state fatty acid metabolism. After achieving steady-state fatty acid metabolism, the mice are administered an intraperitoneal injection containing 10 μCi of ^14C-ALA, ^14C-SDA, ^14C-EPA or ^14C-DHA. Mice are sacrificed 3 hours, 8 hours or 24 hours post-injection, and the total amount of ^14C-EPA, ^14C-DPA n-3 and ^14C-DHA is measured by argentation thin layer chromatography followed by direct electronic autoradiography, as described in Example 3. The order of metabolism of the PUFAs is DHA=EPA>SDA>ALA at 24 hours. SDA is metabolized to long chain n-3 PUFAs more efficiently than ALA in vivo.
# [5] = system: small intestine tissue of Min/+ mouse; assay: Arachidonic acid level in small intestine tissue of Min/+ mice; format: in vivo; conditions: phospholipid fraction, ethyl ester 3% wt. in US17 diet
# Description: The efficacy of select n-3 and n-6 polyunsaturated fatty acids in reducing the level of arachidonic acid in small intestine tissue is evaluated using the Min/+ mouse model.
# The following fatty acid ethyl esters are tested for their effect on intestinal fatty acid composition: 1) ALA-EE; 2) SDA-EE; 3) EPA-EE; 4) DHA-EE; 5) GLA-EE; and 6) CLA-EE. Fatty acid composition is determined in the small intestine because that is where the vast majority of polyps form.
# These fatty acid esters are added to the US17 diet as discussed in Example 8. The arachidonic acid level in the phospholipid fraction of the small intestines of the mice is determined by gas chromatography.
# [6] = system: rat liver; assay: Metabolism in rats, end point analysis using cold fatty acid ethyl esters; format: in vivo; conditions: dietary ethyl esters
# Description: Oleic acid is selected as the replacement fatty acid because literature reports indicate that oleic acid is neutral with respect to inflammation and cancer. After one month on the respective US17-based diets, the mice are sacrificed and the fatty acid composition of each of their livers is analyzed by gas chromatography. […] DHA-EE>EPA-EE>SDA-EE>ALA-EE. […] This is significant because arachidonic acid metabolites (e.g., prostaglandins, leukotrienes, and HETEs (hydroxyeicosatetraenoic acid)) are correlated with cardiovascular disease, inflammation, and tumorigenesis. The group “basal” refers to mice that are fed the standard rodent chow diet just prior to switching to diets that are US17 based. […] The method used is as described in Example 6 except that rats are used in place of mice.
# [7] = Min/+ mice, seven weeks, ethyl ester 3% wt. or sulindac 320 ppm
# [8] = Min/+ mice, seven weeks, ethyl ester 3% wt. or sulindac 320 ppm, mean ± SEM
# [9] = large and small intestine, Min/+ mice, seven weeks, ethyl ester 3% wt. or sulindac 320 ppm, mean ± SEM
# [10] = tumor number × tumor size, Min/+ mice, seven weeks, ethyl ester 3% wt. or sulindac 320 ppm, mean ± SEM
compound,measurement,setting,value
"CC/C=C\C/C=C\C/C=C\CCCCCCCC(=O)OCC [ALA-EE, α-linolenic acid ethyl ester]","sum of the long chain n-3 PUFAs (EPA+DPA n-3+DHA) in liver tissue, rank order of dose dependent increase",[1],DHA-EE>EPA-EE>SDA-EE>ALA-EE
"CC/C=C\C/C=C\C/C=C\CCCCCCCC(=O)O [Compound A-1, all cis 9,12,15-octadecatrienoic acid]",effectiveness in inhibiting polyp formation and development in the large intestine,[2]; Min/+ mice,marginally efficacious
same,Total large intestine tumors/group,"[2]; Min/+ mice, seven weeks on US17 diet with fatty acid ethyl ester 3% wt. (10 g/day human equivalent dose) or sulindac 320 ppm",8
same,Total small intestine tumors/group,[2]; [7],364
same,Avg. large intestine tumors/mouse,[2]; [8],0.8 ± 0.3^bcd
same,Avg. small intestine tumor size,[2]; [8],1.23 ± 0.04^ab mm
same,Avg. small intestine tumors/mouse,[2]; [8],36.4 ± 6.3^ab
same,Avg. large intestine tumor size,"[2]; Min/+ mice, seven weeks, ethyl ester 3% wt. or sulindac 320 ppm, mean ± SEM, only animals bearing colonic tumors",2.75 ± 0.46^ab
same,Total Avg. overall tumor size,[2]; [9],1.21 ± 0.03^bc mm
same,Total Avg. tumors/mouse,[2]; [9],37.2 ± 6.6^ab
same,mice with large intestine tumors / mice in group (in parentheses),[2],5/10
same,Total Avg. overall tumor load,"[2]; tumor number × tumor size, large and small intestine, Min/+ mice, seven weeks, ethyl ester 3% wt. or sulindac 320 ppm, mean ± SEM",45.97 ± 8.88^ab mm
same,Avg. large intestine tumor load,[2]; [10],2.15 ± 0.82^bcd mm
same,Avg. small intestine tumor load,[2]; [10],45.67 ± 8.66^ab mm
same,metabolized to DHA,[3],3%
same,metabolized to EPA,[3],24%
"CC/C=C\C/C=C\C/C=C\C/C=C\CCCCC(=O)O [Compound A-2, all cis 6,9,12,15-octadecatetraenoic acid]",Total small intestine tumors/group,[2]; [7],18
same,Total Avg. tumors/mouse,[2]; [9],18.7 ± 1.9^c
same,mice with large intestine tumors / mice in group (in parentheses),[2],2/10
same,"order of metabolism of the PUFAs to long chain n-3 PUFAs (14C-EPA, 14C-DPA n-3, 14C-DHA)",[4],DHA=EPA>SDA>ALA
same,"decreasing the level of arachidonic acid in the small intestine, comparison",[5],"more effective than ALA, EPA and DHA"
same,"decrease in the level of arachidonic acid, comparison",[6],greater decrease in the level of arachidonic acid than does either ALA or EPA
same,"metabolism to long chain n-3 polyunsaturated fatty acids, comparison",[6],better than ALA
same,"metabolism to long chain n-3 PUFAs, comparison",[3],faster than that of ALA
same,metabolized to DHA,[3],6%
same,metabolized to EPA,[3],55%
"CC/C=C\C/C=C\C/C=C\C/C=C\C/C=C\CCCC(=O)O [Compound A-4, all cis (5,8,11,14,17-eicosapentaenoic acid]",effectiveness in inhibiting polyp formation and development in the large intestine,[2]; Min/+ mice,marginally efficacious
same,Total small intestine tumors/group,[2]; [7],17
same,Total Avg. tumors/mouse,[2]; [9],18.5 ± 2.2^c
same,mice with large intestine tumors / mice in group (in parentheses),[2],6/10
same,Avg. small intestine tumor load,[2]; [10],18.34 ± 2.04^cd mm
"CC/C=C\C/C=C\C/C=C\C/C=C\C/C=C\C/C=C\CCC(=O)O [Compound A-6, all cis 4,7,10,13,16,19-docosahexanoic acid]",mice with large intestine tumors / mice in group (in parentheses),[2],9/10
same,"order of metabolism of the PUFAs to long chain n-3 PUFAs (14C-EPA, 14C-DPA n-3, 14C-DHA)",[4],DHA=EPA>SDA>ALA
"CC/C=C\C/C=C\C/C=C\C/C=C\C/C=C\C/C=C\CCC(=O)OCC [DHA-EE, docosahexaenoic acid ethyl ester]","sum of the long chain n-3 PUFAs (EPA+DPA n-3+DHA) in liver tissue, rank order of dose dependent increase",[1],DHA-EE>EPA-EE>SDA-EE>ALA-EE
"CC/C=C\C/C=C\C/C=C\C/C=C\C/C=C\CCCC(=O)OCC [EPA-EE, eicosapentaenoic acid ethyl ester]","sum of the long chain n-3 PUFAs (EPA+DPA n-3+DHA) in liver tissue, rank order of dose dependent increase",[1],DHA-EE>EPA-EE>SDA-EE>ALA-EE
"CCCCC/C=C\C/C=C\C/C=C\CCCCC(=O)O [GLA, γ-linolenic acid, reference compound]",Total small intestine tumors/group,[2]; [7],42
same,effect on polyp number,[2]; Min/+ mice,appears to increase polyp number
same,mice with large intestine tumors / mice in group (in parentheses),[2],6/9
"CC/C=C\C/C=C\C/C=C\C/C=C\CCCCC(=O)OCC [SDA-EE, stearidonic acid ethyl ester]","sum of the long chain n-3 PUFAs (EPA+DPA n-3+DHA) in liver tissue, rank order of dose dependent increase",[1],DHA-EE>EPA-EE>SDA-EE>ALA-EE
"CC1=C(CC(=O)O)c2cc(F)ccc2/C1=C\c1ccc([S+](C)[O-])cc1 (centres unmarked) [Sulindac, sulindac, reference compound]",Avg. large intestine tumors/mouse,[2]; [8],0.2 ± 0.2^ad
same,mice with large intestine tumors / mice in group (in parentheses),[2],2/9
"conjugated linoleic acid [CLA, reference compound]",Total small intestine tumors/group,[2]; [7],40
same,effect on polyp number,[2]; Min/+ mice,appears to increase polyp number
same,mice with large intestine tumors / mice in group (in parentheses),[2],5/9
